“Also recorded” adds a separate entry of the source. Read-outs that look alike come from different tables or passages of the source.
Tests used:
[1] = cited from earlier work
[2] = biological target: T1, bacterial transglutaminase (BTG) (Streptomyces mobaraensis, UniProt P81453); type: biochemical; conditions: for BTG coupling, result in words: chADC1 N297S and chSGN35 N297S, 18.5 h
T1 construct: purchased Zedira, Darmstadt, Germany
T1 sequence (P81453 77-407): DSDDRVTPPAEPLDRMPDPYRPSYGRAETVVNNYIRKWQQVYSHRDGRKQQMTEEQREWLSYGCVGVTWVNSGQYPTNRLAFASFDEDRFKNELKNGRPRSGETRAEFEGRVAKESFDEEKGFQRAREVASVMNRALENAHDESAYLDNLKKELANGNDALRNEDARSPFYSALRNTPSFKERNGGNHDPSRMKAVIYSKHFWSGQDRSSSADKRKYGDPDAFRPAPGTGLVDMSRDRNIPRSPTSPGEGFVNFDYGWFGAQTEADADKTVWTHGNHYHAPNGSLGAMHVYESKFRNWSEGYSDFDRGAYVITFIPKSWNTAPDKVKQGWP

[3] = Solubility in water / aqueous buffer; type: physicochemical; conditions: aqueous buffer containing a maximum of 10% DMSO
[4] = PNGaseF-deglycosylated chADC1, 80 eq ligand, 6 U/ml BTG, 1 mg/ml mAb, 37° C.
[5] = PNGaseF-deglycosylated chCE7, 80 eq ligand, 6 U/ml BTG, 1 mg/ml mAb, 37° C.
[6] = chADC1 N297Q (two acceptor glutamines per heavy chain), 80 eq ligand, 6 U/ml BTG, 1 mg/ml mAb, 37° C.
[7] = chADC1 N297S, 80 eq ligand, 6 U/ml BTG, 1 mg/ml mAb, 37° C.
[8] = PNGaseF-deglycosylated chADC1, 6 U/mL BTG (optimized: 80 eq ligand, 1 mg/ml mAb, 37° C.)
[9] = PNGaseF-deglycosylated chADC1, standard conditions, 1 U/mL BTG

CC[C@@]1(O)C(=O)OCc2c1cc1n(c2=O)Cc2cc3ccccc3nc2-1 [CPT, camptothecin]
solubility in water [1]: about 2.5 μg/ml

maleimide-valine-citrullin-PAB-MMAF+6C Thiol Linker [MMAF linker]
heavy chain with one linker coupled (LC-MS peak) [2, 4]: 30%
unmodified heavy chain (LC-MS peak) [2, 4]: 70%
heavy chain with one linker coupled (LC-MS peak) [2, 5]: 19%
unmodified heavy chain (LC-MS peak) [2, 5]: 81%
BTG coupling with prolonged incubation, result in words ([2]; PNGaseF-deglycosylated mAb, 160 eq substrate, 6 U/mL BTGase, 40 h or 110 h, 37° C.): does not push the reaction to completion
heavy chain with one MMAF linker (LC-MS peak) [2, 6]: 75%
heavy chain with two MMAF linkers (LC-MS peak) [2, 6]: 25%
BTG coupling, result in words ([2]; 40 eq linker, 4 U/mL or 2 U/mL BTG, 37° C.): quantitatively functionalized
BTG coupling, result in words ([2]; 80 eq linker, 4 U/ml or 2 U/ml BTG, 37° C.): complete functionalization
BTG coupling, result in words ([2]; below 40 eq linker, 4 U/mL or 2 U/mL BTG, 37° C.): no longer quantitative
heavy chain with one linker coupled (LC-MS peak) [2, 7]: greater than 90%

CC(=O)O[C@H]1C(=O)[C@@]2(C)[C@H]([C@H](OC(=O)c3ccccc3)[C@]3(O)C[C@H](OC(=O)[C@H](O)[C@@H](NC(=O)c4ccccc4)c4ccccc4)C(C)=C1C3(C)C)[C@]1(OC(C)=O)CO[C@@H]1C[C@@H]2O [PTX, paclitaxel]
solubility in water [1]: less than 1 μg/ml

NCCCCCNC(=O)c1ccc(-c2c3ccc(=O)cc-3oc3cc(O)ccc23)c(C(=O)O)c1 [cadaverin-fluorescein linker, reference compound]
BTG coupling to heavy chain, result in words [2, 8]: coupling could not be achieved; also recorded: Only partial modification

NCCCCCNC(=O)CSC1CC(=O)N(CCNC(=O)CN2CCN(CC(=O)O)CCN(CC(=O)O)CCN(CC(=O)O)CC2)C1=O (stereo not shown) [C2-DOTA, 2,2′,2″-(10-(2-((2-(3-((2-((5-aminopentyl)amino)-2-oxoethyl)thio)-2,5-dioxopyrrolidin-1-yl)ethyl)-amino)-2-oxoethyl)-1,4,7,10-tetraazacyclododecane-1,4,7-triyl)triacetic acid]
BTG coupling to heavy chain, result in words [2, 8]: minor peak modified chADC1 heavy chain
heavy chain with one linker coupled (LC-MS peak) [2, 4]: 30%
unmodified heavy chain (LC-MS peak) [2, 4]: 70%
BTG coupling to heavy chain, result in words [2, 9]: only unmodified chADC1 heavy chain
BTG coupling to heavy chain, result in words [2, 7]: quantitative coupling could not be accomplished

NCCCCCNC(=O)CCCCCSC1CC(=O)N(CCNC(=O)CN2CCN(CC(=O)O)CCN(CC(=O)O)CCN(CC(=O)O)CC2)C1=O (stereo not shown) [C6-DOTA, 2,2′,2″-(10-(2-((2-(3-((6-((5-aminopentyl)amino)-6-oxohexyl)thio)-2,5-dioxopyrrolidin-1-yl)ethyl)-amino)-2-oxoethyl)-1,4,7,10-tetraazacyclododecane-1,4,7-triyl)triacetic acid]
unmodified heavy chain (LC-MS peak) [2, 4]: 30%
BTG coupling to heavy chain, result in words [2, 7]: near quantitative coupling

[N-]=[N+]=NCCOCCOCCOCCOCCN [Azide-PEG4-NH2, reference compound]
BTG coupling to two glutamines per heavy chain, result in words ([2]; chADC1 N297Q, 80 eq ligand, 6 U/ml BTG, 1 mg/ml mAb, 37° C.): complete coupling to two glutamines on all heavy chains
BTG coupling to heavy chain, result in words [2, 7]: quantitative

CN(C)c1cccc2c(S(=O)(=O)NCCCCCN)cccc12 [dansyl-cadaverin, reference compound]
BTG coupling to heavy chain, result in words [2, 8]: modification of all heavy chains
BTG coupling to heavy chain, result in words [2, 9]: did not go to completion
solubility in aqueous buffer, in words [3]: limited solubility

biotin-cadaverin [reference compound]
BTG coupling to heavy chain, result in words [2, 8]: modification of all heavy chains
BTG coupling to heavy chain, result in words [2, 9]: did not go to completion

Reference: US9717803B2, “Enzymatic conjugation of polypeptides” (Innate Pharma, priority 2011, dated 2017)
